Data reported in ChEMBL document CHEMBL2158001, “Lead optimization studies towards the discovery of novel carbamates as potent AChE inhibitors for the potential treatment of Alzheimer's disease” (Bioorg Med Chem, 2012).

Each compound was assayed against T1, Acetylcholinesterase (Mus musculus, UniProt P21836).
T1 sequence (P21836 whole entry): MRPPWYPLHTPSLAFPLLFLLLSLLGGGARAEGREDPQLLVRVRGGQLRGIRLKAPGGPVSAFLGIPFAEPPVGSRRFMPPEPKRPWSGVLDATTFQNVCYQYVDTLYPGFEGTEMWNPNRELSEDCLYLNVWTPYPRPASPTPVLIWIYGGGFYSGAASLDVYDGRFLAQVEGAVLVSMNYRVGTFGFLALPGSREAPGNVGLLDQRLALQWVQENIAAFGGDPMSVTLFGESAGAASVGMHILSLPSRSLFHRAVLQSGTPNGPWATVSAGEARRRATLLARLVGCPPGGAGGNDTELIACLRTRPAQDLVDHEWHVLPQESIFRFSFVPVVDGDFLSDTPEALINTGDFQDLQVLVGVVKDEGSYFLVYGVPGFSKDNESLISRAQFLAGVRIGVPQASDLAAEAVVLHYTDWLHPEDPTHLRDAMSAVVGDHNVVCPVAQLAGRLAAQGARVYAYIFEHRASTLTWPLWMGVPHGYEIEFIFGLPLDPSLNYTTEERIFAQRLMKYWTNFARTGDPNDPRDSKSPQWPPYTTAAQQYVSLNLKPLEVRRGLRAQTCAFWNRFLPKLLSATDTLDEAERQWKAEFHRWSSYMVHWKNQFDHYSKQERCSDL
Description: Inhibition of Swiss albino mouse RBC AChE after 30 mins by Ellman method

First: CCCCCCCCNC(=O)Oc1ccc2c(c1)CCCN2Cc1ccc(Cl)cc1Cl
Second: CCCCCCCNC(=O)Oc1ccc2c(c1)CCCN2Cc1ccc(Cl)cc1Cl
The IC50 of the first is higher: > 10000 µM for the first, 105 µM for the second. The second is the more potent here.

First: Cc1ccccc1NC(=O)Oc1ccc2c(c1)CCCN2Cc1ccccc1
Second: Cc1cccc(NC(=O)Oc2ccc3c(c2)CCCN3Cc2ccccc2)c1
The IC50 of the first is 4.2-fold lower: 14.3 µM for the first, 60.2 µM for the second. The first is the more potent here.

First: O=C(Nc1cccc(Cl)c1)Oc1ccc2c(c1)CCCN2Cc1ccc(Cl)cc1Cl
Second: O=C(Nc1cccc(Br)c1)Oc1ccc2c(c1)CCCN2Cc1ccc(Cl)cc1Cl
The IC50 of the first is 1.5-fold higher: 211 µM for the first, 140 µM for the second. The second is the more potent here.

Going from O=C(Nc1ccc(Cl)cc1)Oc1ccc2c(c1)CCCN2Cc1ccc(Cl)cc1Cl to O=C(Nc1ccc(F)cc1)Oc1ccc2c(c1)CCCN2Cc1ccc(Cl)cc1Cl, the IC50 falls from 3480 µM to 89.4 µM (39-fold). The second is the more potent here.

First: COc1ccccc1NC(=O)Oc1ccc2c(c1)CCCN2Cc1ccc(Cl)cc1Cl
Second: Cc1ccccc1NC(=O)Oc1ccc2c(c1)CCCN2Cc1ccc(Cl)cc1Cl
The IC50 of the first is 5.4-fold higher: 13.8 µM for the first, 2.57 µM for the second. The second is the more potent here.

Going from O=C(Nc1ccccc1F)Oc1ccc2c(c1)CCCN2Cc1ccc(Cl)cc1Cl to O=C(Nc1ccccc1Cl)Oc1ccc2c(c1)CCCN2Cc1ccc(Cl)cc1Cl, the IC50 rises from 2.56 µM to 11.9 µM (4.6-fold). The first is the more potent here.

Compared with CCCCCCNC(=O)Oc1ccc2c(c1)CCCN2Cc1ccc(Cl)cc1Cl, Cc1cccc(NC(=O)Oc2ccc3c(c2)CCCN3Cc2ccc(Cl)cc2Cl)c1 is 20-fold lower in IC50: 14.1 µM for the first, 0.7 µM for the second. The second is the more potent here.

For Cc1ccc(NC(=O)Oc2ccc3c(c2)CCCN3Cc2ccc(Cl)cc2Cl)cc1, the IC50 was 851 µM.
